Test results taken from patent US9220264B2, “Multimeric forms of antimicrobial peptides” (Singapore Health Services Pte Ltd., priority 2008, dated 2015).
≈ marks a conversion by molar mass, not a printed value. Bridge positions count the residues as written; N and C are the ends. Peptide text beside a SMILES is read from it. I, II: the chains in the order shown.

Columns and labels:
[1] = tested on: Clinical Cadida albicans DF2672R Source: Urine; format: cell-based, Candida albicans
Procedure: (§1) MICs was determined by broth macrodilution method modified from that described by the National Committee for Clinical Laboratory Standards (NCCL). The Mueller Hinton Broth (MHB) at ⅙ strength and without addition of Ca^2+ and Mg^2+ was used for dilution. Serial twofold dilutions of V2 dimer solution was prepared in MHB (⅙ strength) in test tubes. 1 ml of inoculum of test organisms in MHB (⅙ strength) was added to 1 ml of each dilution of V2 dimer to yield as final concentration of 10^4 to 10^5 colony forming units/ml in each test tube. The tubes were incubated at 35° C. for 16 to 20 hours. A positive control containing only the broth and organism, and a negative control tube containing only the broth were also incubated in parallel to the test samples. The above was repeated for each different test organism in separate experiments. The MIC of V2 dimer peptide for each clinical isolate or reference organism was read as the lowest concentration of peptide that inhibited visible growth of the test organism.
(§2) The MIC was also determined for other peptides and compared to gentamicin.

[2] = tested on: Clinical Pseudomonas aeruginosa 07DM 023257 Source: Eye; format: cell-based; details: Clinical 07DM 023257 Source: Eye
Procedure: as §1, §2

[3] = tested on: Escherichia coli ATCC25922; format: cell-based
Procedure: as §1, §2

[4] = tested on: Fusarium solani ATCC 36031; format: cell-based
Procedure: as §1, §2

[5] = tested on: Candida albicans ATCC10231; format: cell-based
Procedure: as §1, §2

[6] = tested on: Clinical Pseudomonas aeruginosa DM 023104 Source: Eye; format: cell-based; details: Clinical DM 023104 Source: Eye
Procedure: as §1, §2

[7] = tested on: Clinical Pseudomonas aeruginosa PAE 239 DM5790/07 Source: Wound; format: cell-based; details: Clinical PAE 239 DM5790/07 Source: Wound
Procedure: as §1, §2

[8] = tested on: Clinical Escherichia coli DB16027 Source: Blood; format: cell-based; details: Clinical DB16027 Source: Blood
Procedure: as §1, §2

[9] = tested on: Clinical Escherichia coli DU46381R Source: Urine; format: cell-based
Procedure: as §1, §2

[10] = tested on: Clinical Pseudomonas aeruginosa PAE 240 DU14476/07 Source: Urine; format: cell-based; details: Clinical PAE 240 DU14476/07 Source: Urine
Procedure: as §1, §2

[11] = tested on: Clinical Pseudomonas aeruginosa PAE 249 DM15013 Source: Wound; format: cell-based; details: Clinical PAE 249 DM15013 Source: Wound
Procedure: as §1, §2

[12] = tested on: Clinical Pseudomonas aeruginosa 07DM023376 Source: Eye; format: cell-based; details: Clinical 07DM023376 Source: Eye
Procedure: as §1, §2

[13] = tested on: Clinical Pseudomonas aeruginosa PAE 230 DR4877/07 Source: Sputum; format: cell-based; details: Clinical PAE 230 DR4877/07 Source: Sputum
Procedure: as §1, §2

[14] = tested on: Clinical Pseudomonas aeruginosa DM 023155 Source: Eye; format: cell-based; details: Clinical DM 023155 Source: Eye
Procedure: as §1, §2

[15] = tested on: Clinical Staphylococcus aureus DM4001 Source: Eye; format: cell-based
Procedure: as §1, §2

SMILES	MIC [1] [µg/mL]	MIC [2] [µg/mL]	MIC [3] [µg/mL]	MIC [4] [µg/mL]	MIC [5] [µg/mL]	MIC [6] [µg/mL]	MIC [7] [µg/mL]	MIC [8] [µg/mL]	MIC [9] [µg/mL]	MIC [10] [µg/mL]	MIC [11] [µg/mL]	MIC [12] [µg/mL]	MIC [13] [µg/mL]	MIC [14] [µg/mL]	MIC [15] [µg/mL]
N=C(N)NCCC[C@H](NC(=O)CNC(=O)[C@@H](N)CCCNC(=N)N)C(=O)N[C@@H](CCCCN)C(=O)N[C@@H](Cc1ccc(O)cc1)C(=O)N[C@@H](Cc1ccc(O)cc1)C(=O)N[C@@H](CCCNC(=N)N)C(=O)N[C@@H](CCCNC(=N)N)C(=O)N[C@@H](Cc1ccc(O)cc1)C(=O)N[C@@H](Cc1ccc(O)cc1)C(=O)O [Y4 monomer, RGRKYYRRYY] (H-RGRKYYRRYY-OH; N-terminus and C-terminus assumed)	25 (≈ 16.9 µM)	>50	12.5 (≈ 8.44 µM)	12.5 (≈ 8.44 µM)	12.5 (≈ 8.44 µM)	50 (≈ 33.8 µM)	50 (≈ 33.8 µM)	6.25 (≈ 4.22 µM)	12.5 (≈ 8.44 µM)	25 (≈ 16.9 µM)	50 (≈ 33.8 µM)	>50	>50	25 (≈ 16.9 µM)	12.5 (≈ 8.44 µM)
N=C(N)NCCC[C@H](NC(=O)CNC(=O)[C@@H](N)CCCNC(=N)N)C(=O)N[C@@H](CCCCN)C(=O)N[C@@H](Cc1c[nH]c2ccccc12)C(=O)N[C@@H](Cc1c[nH]c2ccccc12)C(=O)N[C@@H](CCCNC(=N)N)C(=O)N[C@@H](CCCNC(=N)N)C(=O)NCCCC[C@H](NC(=O)[C@H](CCCNC(=N)N)NC(=O)[C@H](CCCNC(=N)N)NC(=O)[C@H](Cc1c[nH]c2ccccc12)NC(=O)[C@H](Cc1c[nH]c2ccccc12)NC(=O)[C@H](CCCCN)NC(=O)[C@H](CCCNC(=N)N)NC(=O)CNC(=O)[C@@H](N)CCCNC(=N)N)C(=O)N[C@@H](CCCCN)C(=O)O [W2-dimer] (I: H-RGRKWWRRKK-OH / II: H-RGRKWWRR; amide I:9-II:C; N-terminus assumed)	12.5 (≈ 4.74 µM)	12.5 (≈ 4.74 µM)	25 (≈ 9.47 µM)	12.5 (≈ 4.74 µM)	12.5 (≈ 4.74 µM)	12.5 (≈ 4.74 µM)	12.5 (≈ 4.74 µM)	12.5 (≈ 4.74 µM)	6.25 (≈ 2.37 µM)	12.5 (≈ 4.74 µM)	6.25 (≈ 2.37 µM)	25 (≈ 9.47 µM)	12.5 (≈ 4.74 µM)	12.5 (≈ 4.74 µM)	12.5 (≈ 4.74 µM)
N=C(N)NCCC[C@H](NC(=O)[C@H](CCCNC(=N)N)NC(=O)[C@H](Cc1c[nH]c2ccccc12)NC(=O)[C@H](Cc1c[nH]c2ccccc12)NC(=O)[C@H](CCCCN)NC(=O)[C@H](CCCNC(=N)N)NC(=O)CNC(=O)[C@@H](N)CCCNC(=N)N)C(=O)O [W2-8AA, RGRKWWRR] (H-RGRKWWRR-OH; N-terminus and C-terminus assumed)	12.5 (≈ 10.4 µM)	>50	12.5 (≈ 10.4 µM)	25 (≈ 20.8 µM)	12.5 (≈ 10.4 µM)	25 (≈ 20.8 µM)	>50	6.25 (≈ 5.21 µM)	6.25 (≈ 5.21 µM)	12.5 (≈ 10.4 µM)	50 (≈ 41.7 µM)	25 (≈ 20.8 µM)	>50	50 (≈ 41.7 µM)	12.5 (≈ 10.4 µM)
CC(C)[C@H](NC(=O)[C@H](CCCCN)NC(=O)[C@H](CCCNC(=N)N)NC(=O)CNC(=O)[C@@H](N)CCCNC(=N)N)C(=O)N[C@H](C(=O)N[C@@H](CCCNC(=N)N)C(=O)N[C@@H](CCCNC(=N)N)C(=O)NCCCC[C@H](NC(=O)[C@H](CCCNC(=N)N)NC(=O)[C@H](CCCNC(=N)N)NC(=O)[C@@H](NC(=O)[C@@H](NC(=O)[C@H](CCCCN)NC(=O)[C@H](CCCNC(=N)N)NC(=O)CNC(=O)[C@@H](N)CCCNC(=N)N)C(C)C)C(C)C)C(=O)NCCCC[C@H](NC(=O)[C@H](CCCCNC(=O)[C@H](CCCNC(=N)N)NC(=O)[C@H](CCCNC(=N)N)NC(=O)[C@@H](NC(=O)[C@@H](NC(=O)[C@H](CCCCN)NC(=O)[C@H](CCCNC(=N)N)NC(=O)CNC(=O)[C@@H](N)CCCNC(=N)N)C(C)C)C(C)C)NC(=O)[C@H](CCCNC(=N)N)NC(=O)[C@H](CCCNC(=N)N)NC(=O)[C@@H](NC(=O)[C@@H](NC(=O)[C@H](CCCCN)NC(=O)[C@H](CCCNC(=N)N)NC(=O)CNC(=O)[C@@H](N)CCCNC(=N)N)C(C)C)C(C)C)C(=O)N[C@@H](CCCCN)C(=O)O)C(C)C [V2-tetramer] (I: H-RGRKVVRRKKK-OH / II: H-RGRKVVRRK / III: H-RGRKVVRR / IV: H-RGRKVVRR; amide I:9-IV:C, I:10-II:C, II:9-III:C; N-terminus assumed)	12.5 (≈ 2.74 µM)	12.5 (≈ 2.74 µM)	12.5 (≈ 2.74 µM)	3.125 (≈ 0.685 µM)	12.5 (≈ 2.74 µM)	6.25 (≈ 1.37 µM)	12.5 (≈ 2.74 µM)	6.25 (≈ 1.37 µM)	6.25 (≈ 1.37 µM)	6.25 (≈ 1.37 µM)	6.25 (≈ 1.37 µM)	6.25 (≈ 1.37 µM)	12.5 (≈ 2.74 µM)	6.25 (≈ 1.37 µM)	12.5 (≈ 2.74 µM)
N=C(N)NCCC[C@H](NC(=O)CNC(=O)[C@@H](N)CCCNC(=N)N)C(=O)N[C@@H](CCCCN)C(=O)N[C@@H](Cc1ccc(O)cc1)C(=O)N[C@@H](Cc1ccc(O)cc1)C(=O)N[C@@H](CCCNC(=N)N)C(=O)N[C@@H](CCCNC(=N)N)C(=O)NCCCC[C@H](NC(=O)[C@H](CCCNC(=N)N)NC(=O)[C@H](CCCNC(=N)N)NC(=O)[C@H](Cc1ccc(O)cc1)NC(=O)[C@H](Cc1ccc(O)cc1)NC(=O)[C@H](CCCCN)NC(=O)[C@H](CCCNC(=N)N)NC(=O)CNC(=O)[C@@H](N)CCCNC(=N)N)C(=O)N[C@@H](CCCCN)C(=O)O [Y2-dimer] (I: H-RGRKYYRRKK-OH / II: H-RGRKYYRR; amide I:9-II:C; N-terminus assumed)	12.5 (≈ 4.91 µM)	12.5 (≈ 4.91 µM)	12.5 (≈ 4.91 µM)	12.5 (≈ 4.91 µM)	25 (≈ 9.82 µM)	12.5 (≈ 4.91 µM)	12.5 (≈ 4.91 µM)	6.25 (≈ 2.45 µM)	12.5 (≈ 4.91 µM)	6.25 (≈ 2.45 µM)	12.5 (≈ 4.91 µM)	25 (≈ 9.82 µM)	12.5 (≈ 4.91 µM)	25 (≈ 9.82 µM)	12.5 (≈ 4.91 µM)
N=C(N)NCCC[C@H](NC(=O)[C@H](CCCNC(=N)N)NC(=O)[C@H](Cc1ccc(O)cc1)NC(=O)[C@H](Cc1ccc(O)cc1)NC(=O)[C@H](CCCCN)NC(=O)[C@H](CCCNC(=N)N)NC(=O)CNC(=O)[C@@H](N)CCCNC(=N)N)C(=O)O [Y2-8AA, RGRKYYRR] (H-RGRKYYRR-OH; N-terminus and C-terminus assumed)	50 (≈ 43.3 µM)	>50	25 (≈ 21.7 µM)	50 (≈ 43.3 µM)	25 (≈ 21.7 µM)	>50	>50	25 (≈ 21.7 µM)	25 (≈ 21.7 µM)	6.25 (≈ 5.41 µM)	>50	50 (≈ 43.3 µM)	>50	>50	>50
